The target in the experiment is Autotaxin (Homo sapiens, UniProt Q13822). Kind of experiment: Enzyme Inhibition Assay. As for the experimental part:
Then, 15 μL of 41.7 nM ATX solution was added (30 nM final concentration), mixed five times and then incubated for 15 minutes at 30° C. 10 μL of MR121 substrate solution was added (1 μM final concentration), mixed 30 times and then incubated for 15 minutes at 30° C.

For orientation: IC50 means the concentration needed to halve the response being measured.

Consider `NS(=O)(=O)c1ccc(C(=O)N2C[C@H]3CN(C(=O)COc4ccc(OC(F)(F)F)cc4)C[C@]3(F)C2)c(F)c1` (relative stereo) [US10738053, Example 3.01], for which the IC50 is 7 nM.

The values above are taken from BindingDB's records for patent US10738053 (Hoffmann-La Roche, 2020).
